From patent US20060128577A1, “Use of alkoxylated hydroxycarboxylic acid esters for solubilizing perfume oils in water” (priority 2004, published 2006)

Test: Solubilizing effect of surfactants for perfume oil in water (10% by weight aqueous surfactant solution, perfume oil quantity before clouding)
Format: physicochemical
Conditions: 10% by weight aqueous solution of surfactant, higher = better solubilizing effect
Experimental: 1. In order to test the effect according to the invention, a 10% by weight aqueous solution of various surfactants was prepared. To this end, the surfactant was first mixed with the perfume oil and water was then added. The higher the percentage content of perfume oil, the better the solubilizing effect of the surfactant. In Table 1 below, V stands for known products and E for alkoxylated esters according to the invention.
Examples E1 and E2 according to the invention use a citric acid ester as described in 1.1 or 1.2.

Quantity (% by wt.) before clouding (perfume oil: Lemon oil terpene): 4 % by wt.
Quantity (% by wt.) before clouding (perfume oil: Octyl aldehyde): 2 % by wt.
Quantity (% by wt.) before clouding (perfume oil: Orange oil): 4 % by wt.
Substance: 2-Hydroxy-C12-(PO)1-(EO)9-glycol ether [Example V1a]
